# Source: patent US20120035320A1, “POLYACRIDINE NUCLEIC ACID DELIVERY PEPTIDE COMPLEXES” (University of Iowa Research Foundation, priority 2010, published 2012)
# Like-named read-outs stand apart in the source and are kept apart here. No end group written: not given here. Acr = acridine on the lysine ε-amine
# What was measured:
# Erythrocytes = assay: RBC hemolysis assay; format: cell-based, mice
# Protocol: Whole blood was obtained from male ICR mice by heart puncture with heparinized 22 G needles and collected in conical tubes containing 10 ml of 0.15 M PBS (pH 7.4) prewarmed to 37° C. Erythrocytes were immediately separated from plasma by centrifugation at 2000 rpm for 2 min, washed three times with 10 ml of PBS, and then diluted to 1.5×10^8 cells/ml. Peptides were prepared at 15 μM and serially diluted to 10-0.01 μM, after which 100 μl was pipetted in triplicate into a MultiScreenHTS BV 96 well plate. Erythrocytes (50 μl, 7.5×10^6 cells) were added to the peptides and incubated at 37° C. for 1 h followed by filtration on a Multiscreen vacuum manifold (Millipore Corporation, Billerica, Mass.). The filtrate was measured for Abs410nm on a Biotech plate reader (Biotech Instruments Incorporated., Winooski, Vt.) and compared to the 100% hemolysis caused by replacing PBS with water. Peptide DNA polyplexes (1.5 nmols and 7.5 μg pGL3) were also assayed for hemolysis as described above.
# [1] = QELS particle size and zeta potential of polyacridine-melittin polyplexes; format: physicochemical; conditions: mean particle size of peptide-DNA polyplex, 0.5 nmol of peptide per μg of DNA
# Protocol: Particle size and zeta potential were determined by preparing 2 ml of polyplex in 5 mM Hepes pH 7.5 at a DNA concentration of 30 μg/ml with 15 nmols/ml of peptide (0.5 nmol of peptide per μg of DNA). Particle size was measured by quasi-elastic light scattering (QELS) at a scatter angle of 90° on a Brookhaven ZetaPlus particle sizer (Brookhaven Instruments Corporation, NY). The zeta potential was determined as the mean of ten measurements immediately following acquisition of the particle size.
# [2] = system: HepG2, 3T3, and CHO cells; assay: in vitro gene transfer (luciferase) in three cell lines; format: cell-based; conditions: all three cell lines; 0.5 nmol per μg of pGL3
# Protocol: HepG2 cells (5×10^5) were plated on 6×35 mm wells and grown to approximately 50% confluency. Transfections were performed in MEM supplemented with 2% FBS, sodium pyruvate (1 mM), and penicillin and streptomycin (100 U and 100 μg/mL). Polyplexes were prepared at a DNA concentration of 30 μg/ml and a stoichiometry of 0.5 nmol peptide per μg of DNA in Hepes buffered mannitol (HBM). Polyplexes (10 μg of DNA in 0.3 ml of HBM) were added drop wise to wells in triplicate. After 24 hrs, the cells were washed twice with 2 ml of ice-cold phosphate-buffered saline (Ca^2+- and Mg^2+-free) and then treated with 0.5 ml of lysis buffer (25 mM Tris Chloride, pH 7.8, 1 mM EDTA, 8 mM magnesium chloride, and 1% Triton X-100) for 10 min at 4° C. Cell lysates were scraped, transferred to 1.5 mL microcentrifuge tubes, and centrifuged for 10 min at 13,000 g at 4° C. to pellet cell debris. Lysis buffer (300 μL), sodium-ATP (4.3 μL of a 165 mM solution at pH 7, 4° C.) were combined in a test tube, mixed briefly, and immediately placed in the luminometer. Luciferase relative light units were measured by a Lumat LB 9501 (Berthold Systems, Germany) with 10 s integration after automatic injection of 100 μL of 0.5 mM D-luciferin. […] Protein concentrations were measured by a BCA assay using bovine serum albumin as a standard. […]
# DNA = DNA band shift and thiazole orange displacement assays of cysteine-flanked acridinylated peptides; format: binding
# Protocol: CKacrKKacrC (SEQ ID NO: 103), CKacrRKacrC (SEQ ID NO: 104), CKacrLKacrC (SEQ ID NO: 105), and CKacrFKacrC (SEQ ID NO: 106) (where Kacr is a lysine modified with acridine at the ε-amine) (FIG. 33, Formula VII) were synthesized by SPPS and purified while monitoring the absorbance of acridine at 409 nm. Monomers were evaluated for DNA affinity by DNA band shift and thiazole orange displacement assays. DNA complexes with monomers were also evaluated for particle size and ζ-potential. […] Buffered incubations of monomer at pH 8.0 were used to encourage polymerization of peptides and poly-CKacrKKacrC (SEQ ID NO: 103) and poly-CKacrRKacrC (SEQ ID NO: 104) have been isolated.
# [3] = biological target: human DC-SIGN (Dendritic Cell-Specific Intracellular adhesion molecule-3 Grabbing Non-integrin) receptor, stably transfected in CHO cells (human) (UniProt Q9NNX6); assay: cell-based or functional assay
# [4] = biological target: human DC-SIGN (Dendritic Cell-Specific Intracellular adhesion molecule-3 Grabbing Non-integrin) receptor, stably transfected in CHO cells (human) (UniProt Q9NNX6); assay: FACS of DC-SIGN CHO (+) and (-) cells after 24 hr with Cy5-DNA glycopeptide polyplex
# [5] = biological target: human DC-SIGN (Dendritic Cell-Specific Intracellular adhesion molecule-3 Grabbing Non-integrin) receptor, stably transfected in CHO cells (human) (UniProt Q9NNX6); assay: FACS of DC-SIGN CHO (+) and (-) cells after 24 hr at 37 C with Cy5-DNA glycopeptide polyplex
# liver = assay: hydrodynamic stimulation and bioluminescence imaging of luciferase expression; format: in vivo, mice; conditions: tail vein 1 μg pGL3 in complex with 0.5 nmol peptide; HD stimulation 30 min after DNA
# Protocol: pGL3 (1 μg) was prepared in a volume of normal saline corresponding to 9 wt/vol % of the mouse's body weight (1.8-2.25 ml based on 20-25 g mice). The DNA dose was administered by tail vein to 4-5 mice in 5 sec according to a published procedure (Liu F, Song Y, Liu D. Hydrodynamics-based transfection in animals by systemic administration of plasmid DNA. Gene Ther 1999; 6: 1258-1266; Zhang G, Budker V, Wolff J A. High levels of foreign gene expression in hepatocytes after tail vein injections of naked plasmid DNA. Human Gene Therapy 1999; 10: 1735-1737). Mice (4-5) were also dosed tail vein with 1 μg of PEGylated polyacridine polyplex in 50 μl of HBM (5 mM Hepes, 0.27 M mannitol, pH 7.4). At times ranging from 5-120 min, a stimulatory hydrodynamic dose of normal saline (9 wt/vol % of the body weight) was administered over 5 sec. At 24 hrs post-DNA dose, mice were anesthetized by 3% isofluorane, then administered an i.p. dose of 80 μl (2.4 mg) of D-luciferin (30 μg/μl in phosphate-buffered saline). At 5 min following the D-luciferin dose, mice were imaged for bioluminescence (BLI) on an IVIS Imaging 200 Series (Xenogen). BLI was performed in a light-tight chamber on a temperature-controlled, adjustable stage while isofluorane was administered by a gas manifold at a flow rate of 3%. Images were acquired at a ‘medium’ binning level and a 20 cm field of view. Acquisition times were varied (1 sec^−1 min) depending on the intensity of the luminescence. The Xenogen system reported bioluminescence as photons/sec/cm^2/seradian in a 2.86 cm diameter region of interest covering the liver. The integration area was transformed to pmols of luciferase in the liver using a previously reported standard curve (Rettig G et al. Quantitative Bioluminscence Imaging of Transgene Expression In Vivo. Analytical Biochemistry 2006; 335: 90-94). The results were determined to be statistically significant (p≦0.05) based on a two-tailed unpaired t-test.
# Sequence of UniProt Q9NNX6 (Q9NNX6 whole entry): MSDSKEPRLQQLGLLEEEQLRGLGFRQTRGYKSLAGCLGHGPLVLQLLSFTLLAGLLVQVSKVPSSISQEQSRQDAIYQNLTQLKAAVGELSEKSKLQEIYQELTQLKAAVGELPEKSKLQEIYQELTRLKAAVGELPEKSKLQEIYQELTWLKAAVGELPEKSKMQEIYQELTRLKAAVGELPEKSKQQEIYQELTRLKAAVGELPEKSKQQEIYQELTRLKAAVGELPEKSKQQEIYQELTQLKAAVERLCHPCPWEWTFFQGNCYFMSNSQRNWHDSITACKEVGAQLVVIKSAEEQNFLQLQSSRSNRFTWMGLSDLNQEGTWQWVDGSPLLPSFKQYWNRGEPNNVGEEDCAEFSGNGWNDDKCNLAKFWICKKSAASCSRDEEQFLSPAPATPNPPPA
compound,measurement,setting,value
CC[C@H](C)[C@H](NC(=O)CNC(=O)[C@H](CCCCN)NC(=O)[C@H](CCCCN)NC(=O)[C@H](Cc1c[nH]c2ccccc12)NC(=O)[C@@H](N)CSSC[C@H](NC(=O)[C@H](CCCNC(=N)N)NC(=O)[C@H](CCCCNC(C)=O)NC(=O)[C@H](CCCNC(=N)N)NC(=O)[C@H](CCCCNC(C)=O)NC(=O)[C@H](CCCNC(=N)N)NC(=O)[C@H](CCCCNC(C)=O)NC(=O)[C@H](CCCNC(=N)N)NC(=O)[C@H](CCCCNC(C)=O)NC(=O)[C@@H](N)Cc1c[nH]c2ccccc12)C(=O)O)C(=O)NCC(=O)N[C@@H](C)C(=O)N[C@H](C(=O)N[C@@H](CC(C)C)C(=O)N[C@@H](CCCCN)C(=O)N[C@H](C(=O)N[C@@H](CC(C)C)C(=O)N[C@H](C(=O)N[C@H](C(=O)NCC(=O)N[C@@H](CC(C)C)C(=O)N1CCC[C@H]1C(=O)N[C@@H](C)C(=O)N[C@@H](CC(C)C)C(=O)N[C@H](C(=O)N[C@@H](CO)C(=O)N[C@@H](CC(C)C)C(=O)N[C@H](C(=O)N[C@@H](CCCCN)C(=O)N[C@@H](CCCNC(=N)N)C(=O)N[C@@H](CCCCN)C(=O)N[C@@H](CCCNC(=N)N)C(=O)N[C@@H](CCC(N)=O)C(=O)N[C@@H](CCC(N)=O)C(=O)O)[C@@H](C)CC)[C@@H](C)CC)[C@@H](C)O)[C@@H](C)O)C(C)C)C(C)C [poly(Lys(Ac)-Arg)4-SS-melittin],EC50,"Erythrocytes; RBC hemolysis at pH 5.0, second value of the cell (pH 7.4:5.0), read-out: HL50 (μM) pH 5.0",7.7 µM
same,EC50,"Erythrocytes; RBC hemolysis at pH 7.4, first value of the cell (pH 7.4:5.0), read-out: HL50 (μM) pH 7.4",5.6 µM
same,Particle Size (nm),[1],177 nm
same,"gene transfer, fold less active than poly(Acr-Arg)4-SS-melittin",[2],100-1000 fold
"CKacrKKacrC: cysteine-flanked acridinylated peptide, Kacr = lysine modified with acridine at the ε-amine; SEQ ID NO: 103 (CK(Acr)KK(Acr)C; cysteine pairing not given here)",affinity for DNA,DNA,higher affinity for DNA
"CKacrRKacrC: cysteine-flanked acridinylated peptide, SEQ ID NO: 104 (CK(Acr)RK(Acr)C; cysteine pairing not given here)",affinity for DNA,DNA,higher affinity for DNA
Man 9 glycopeptide (Man9GlcNAc2-Asn-Tyr-propionate maleimide conjugated to Cys-(Acr-Lys)4),in vitro gene transfer (luciferase expression) in CHO (+) versus CHO (-) cells,[3],100 fold
same,"fold fluorescence intensity, CHO (+) over CHO (-) cells",[4],10 fold
same,"fold fluorescence intensity (cell uptake), CHO (+) over CHO (-) cells",[5],10 to 50 fold
"PEGylated-SS-(Acr-Arg)4: (Acr-Arg)4-Cys with Cys thiol reacted with 5 kDa PEG-OPSS, reducible disulfide linkage",BLI luciferase expression in liver at 24 hr,liver,approximately 10^7 photons/sec/cm^2/sr
poly-CKacrKKacrC: disulfide polymer of CKacrKKacrC formed by buffered incubation at pH 8.0 (CK(Acr)KK(Acr)C; also: disulfide polymer formed at pH 8.0),affinity for DNA,DNA,greater affinity of the polymer for DNA than the monomer
